From US10576077B2, “Pharmaceutical salt forms of Cepharanthine and Tetrandrine” (Southwest Research Institute, priority 2015, dated 2020)
Counter-ions that a name gives are not always drawn.

Experiments:
[1] = Solubility of Cepharanthine salts in water; assay type: physicochemical
[2] = assay type: physicochemical
Protocol: A small amount of the sample (0.6 ml) was removed from each vial and centrifuged to collect 0.3 ml clear supernatant.
The sample was filtered through a 0.45 μm PTFE syringe filter and the filtrate sent for HPLC analysis (Table 10).

rat test animals = experiment: Oral dosing of concentrated CEPN.2HCl water solutions in rats; assay type: in vivo; settings: ENG sample, concentrated water solution

Row | Sample solubility [2] [mg/mL] | Compound | also measured
1 | – | COc1ccc2cc1Oc1ccc(cc1)C[C@H]1c3c(cc4c(c3Oc3cc5c(cc3OC)CCN(C)[C@@H]5C2)OCO4)CCN1C [HBr salt, Cepharanthine bis-hydrobromide] | solubility ([1]; read-out: Final Concentration (solubility in water)): 17.1 mg/mL
2 | 31.9 | CEPN.2HCl [16-0203-012-097-27] | –
3 | 38.7 | CEPN.2HCl [16-0203-012-098-10] | –
4 | 39.7 | CEPN.2HCl [16-0203-012-098-27] | –
5 | 36.5 | CEPN.2HCl [16-0203-012-105-23] | –
6 | 33.9 | CEPN.2HCl [16-0203-012-119-35] | –
7 | – | Cepharanthine bis-pyruvate [Pyruvic acid salt] | Final Concentration (solubility in water) [1]: 488 mg/mL
8 | – | Cepharanthine.2HCl [CEPN.2HCl] | Effect of oral dosing of concentrated water solutions (rat test animals): gelation in the stomach of the rat test animals and resultant toxic effects; Final Concentration (solubility in water) [1]: 51.6 mg/mL
